Measurements reported in patent EP4559911A1, “NOVEL HETEROCYCLIC COMPOUND AND PHARMACEUTICAL COMPOSITION FOR INHIBITING AUTOTAXIN COMPRISING THE SAME” (Nextgen Bioscience Co., Ltd., priority 2022, dated 2024).

Target: human Autotaxin protein (Homo sapiens, UniProt Q13822)
Experiment: Evaluation of the inhibitory activity against human Autotaxin protein (18:1 LysoPC substrate, choline assay kit, absorbance at 570 nm)
Assay type: biochemical
Settings: compound at 500nM; 2 hours at 37 °C; % inhibition = (1 - absorbance test group / absorbance control group) X 100
Method: Solutions of each compound synthesized (80 uM, 100% dimethyl sulfoxide) were sequentially diluted 5-fold with dimethyl sulfoxide to prepare 6 concentrations. Each concentration of the compound was diluted 2-fold with 1x test buffer (50 mM Tris-Cl (pH 8.0), 5 mM KCl, 1 mM CaCl2, 1 mM MgCl2, 140 mM NaCl, deionized water, 1 mg/mL BSA), and 1 uL (1.25% dimethyl sulfoxide) of this diluted mixture was dispensed into each well of a 96-well clear round-bottom plate. 9 uL of 1x test buffer was added, and 20 uL of 240 nM human autotaxin protein (buffer: 50 mM Tris-HCl, pH 8.0, with 150 mM sodium chloride and 20% glycerol) was added. 10 uL of sonicated 360 uM 18:1 LysoPC (diluted with 1x assay buffer) was added. The reaction was performed for 2 hours in a shaking incubator at 37 °C, and a secondary reaction mixture (choline assay kit, KA1662) (65 uL of 1x assay buffer: 1 uL of choline oxidase: 1 uL of dye probe) was prepared. 60 uL of the secondary reaction mixture was added to the plate where the reaction was performed, and incubated for 30 minutes in a shaker. The absorbance value was measured at a wavelength of 570 nm using a SpectraMax iD3 microplate reader. The percentage inhibition activity value (% inhibition) was calculated by the formula: (1 - absorbance value test group / absorbance value control group) X 100.

Structure (SMILES) | inhibition at 0.5 µM [%]
Fc1cc2c(cc1F)CC(Nc1ncc(-c3nnc(N4CCC(n5cncn5)C4)o3)cn1)C2 (stereo not shown) [Example 28, 5-(5-(3-(1H-1,2,4-triazol-1-yl)pyrrolidin-1-yl)-1,3,4-oxadiazol-2-yl)-N-(5,6-difluoro-2,3-dihydro-1H-inden-2-yl)pyrimidin-2-amine] | 10.9
Cc1ncn(C2CCN(c3nnc(-c4cnc(NC5Cc6cc(F)c(F)cc6C5)nc4)o3)C2)n1 (stereo not shown) [Example 29, N-(5,6-difluoro-2,3-dihydro-1H-inden-2-yl)-5-(5-(3-(3-methyl-1H-1,2,4-triazol-1-yl)pyrrolidin-1-yl)-1,3,4-oxadiazol-2-yl)pyrimidin-2-amine] | 9.2
CC1(c2c[nH]nn2)CCN(c2nnc(-c3cnc(NC4Cc5cc(F)c(F)cc5C4)nc3)o2)C1 (stereo not shown) [Example 30, N-(5,6-difluoro-2,3-dihydro-1H-inden-2-yl)-5-(5-(3-methyl-3-(1H-1,2,3-triazol-4-yl)pyrrolidin-1-yl)-1,3,4-oxadiazol-2-yl)pyrimidin-2-amine] | 96.9
CC1(c2c[nH]nn2)CCN(c2nnc(-c3cnc(NC4Cc5ccccc5C4)nc3)o2)C1 (stereo not shown) [Example 31, N-(2,3-dihydro-1H-inden-2-yl)-5-(5-(3-methyl-3-(1H-1,2,3-triazol-4-yl)pyrrolidin-1-yl)-1,3,4-oxadiazol-2-yl)pyrimidin-2-amine] | 96.8
CC1(c2c[nH]nn2)CCN(c2nnc(-c3cnc(NCCc4cc(Cl)cc(Cl)c4)nc3)o2)C1 (stereo not shown) [Example 32, N-(3,5-dichlorophenethyl)-5-(5-(3-methyl-3-(1H-1,2,3-triazol-4-yl)pyrrolidin-1-yl)-1,3,4-oxadiazol-2-yl)pyrimidin-2-amine] | 21.9
CC1(c2c[nH]nn2)CCN(c2nnc(-c3cnc(NCc4cc(F)cc(F)c4)nc3)o2)C1 (stereo not shown) [Example 33, N-(3,5-difluorobenzyl)-5-(5-(3-methyl-3-(1H-1,2,3-triazol-4-yl)pyrrolidin-1-yl)-1,3,4-oxadiazol-2-yl)pyrimidin-2-amine] | 29.1
CC1(c2c[nH]nn2)CCN(C(=O)/C=C/c2cnc(NC3Cc4ccccc4C3)nc2)C1 (stereo not shown) [Example 34, (E)-3-(2-((2,3-dihydro-1H-inden-2-yl)amino)pyrimidin-5-yl)-1-(3-methyl-3-(1H-1,2,3-triazol-4-yl)pyrrolidin-1-yl)prop-2-en-1-one] | 88.4
Cn1cc(C2CCN(c3nnc(-c4cnc(NC5Cc6cc(F)c(F)cc6C5)nc4)o3)C2)nn1 (stereo not shown) [Example 35, N-(5,6-difluoro-2,3-dihydro-1H-inden-2-yl)-5-(5-(3-(1-methyl-1H-1,2,3-triazol-4-yl)pyrrolidin-1-yl)-1,3,4-oxadiazol-2-yl)pyrimidin-2-amine] | 1.3
Fc1ccc2c(c1)CC(Nc1ncc(-c3nnc(N4CCC(c5c[nH]nn5)C4)o3)cn1)C2 (stereo not shown) [Example 36, 5-(5-(3-(1H-1,2,3-triazol-4-yl)pyrrolidin-1-yl)-1,3,4-oxadiazol-2-yl)-N-(5-fluoro-2,3-dihydro-1H-inden-2-yl)pyrimidin-2-amine] | 97.4
Clc1ccc2c(c1)CC(Nc1ncc(-c3nnc(N4CCC(c5c[nH]nn5)C4)o3)cn1)C2 (stereo not shown) [Example 37, 5-(5-(3-(1H-1,2,3-triazol-4-yl)pyrrolidin-1-yl)-1,3,4-oxadiazol-2-yl)-N-(5-chloro-2,3-dihydro-1H-inden-2-yl)pyrimidin-2-amine] | 97.9
Fc1cc2c(cc1F)CC(Nc1ncc(-c3nnc(N4CCC(c5c[nH]cn5)C4)o3)cn1)C2 (stereo not shown) [Example 38, 5-(5-(3-(1H-imidazol-4-yl)pyrrolidin-1-yl)-1,3,4-oxadiazol-2-yl)-N-(5,6-difluoro-2,3-dihydro-1H-inden-2-yl)pyrimidin-2-amine] | 55
Fc1cc2c(cc1F)CC(Nc1ncc(-c3nnc(N4CC(c5c[nH]nn5)C4)o3)cn1)C2 [Example 39, 5-(5-(3-(1H-1,2,3-triazol-4-yl)azetidin-1-yl)-1,3,4-oxadiazol-2-yl)-N-(5,6-difluoro-2,3-dihydro-1H-inden-2-yl)pyrimidin-2-amine] | 98
O=C(/C=C/c1cnc(NC2Cc3cc(F)c(F)cc3C2)nc1)N1CC(c2c[nH]nn2)C1 [Example 40, (E)-1-(3-(1H-1,2,3-triazol-4-yl)azetidin-1-yl)-3-(2-((5,6-difluoro-2,3-dihydro-1H-inden-2-yl)amino)pyrimidin-5-yl)prop-2-en-1-one] | 98.6
Cn1nncc1C1CN(c2nnc(-c3cnc(NC4Cc5cc(F)c(F)cc5C4)nc3)o2)C1 [Example 41, N-(5,6-difluoro-2,3-dihydro-1H-inden-2-yl)-5-(5-(3-(1-methyl-1H-1,2,3-triazol-5-yl)azetidin-1-yl)-1,3,4-oxadiazol-2-yl)pyrimidin-2-amine] | 70.6
c1ccc2c(c1)CC(Nc1ncc(-c3nnc(N4CC(c5c[nH]nn5)C4)o3)cn1)C2 [Example 42, 5-(5-(3-(1H-1,2,3-triazol-4-yl)azetidin-1-yl)-1,3,4-oxadiazol-2-yl)-N-(2,3-dihydro-1H-inden-2-yl)pyrimidin-2-amine] | 97.8
Fc1cc2c(cc1F)CC(Nc1ncc(C3CC(N4CC(c5c[nH]nn5)C4)=NO3)cn1)C2 (stereo not shown) [Example 43, 5-(3-(3-(1H-1,2,3-triazol-4-yl)azetidin-1-yl)-4,5-dihydroisoxazol-5-yl)-N-(5,6-difluoro-2,3-dihydro-1H-inden-2-yl)pyrimidin-2-amine] | 35.4
O=C(CCc1cnc(NC2Cc3cc(F)c(F)cc3C2)nc1)N1CC(c2c[nH]nn2)C1 [Example 44, 1-(3-(1H-1,2,3-triazol-4-yl)azetidin-1-yl)-3-(2-((5,6-difluoro-2,3-dihydro-1H-inden-2-yl)amino)pyrimidin-5-yl)propan-1-one] | 51.5
Fc1cc2c(cc1F)CC(Nc1ncc(-c3cc(N4CC(c5c[nH]nn5)C4)no3)cn1)C2 [Example 45, 5-(3-(3-(1H-1,2,3-triazol-4-yl)azetidin-1-yl)isoxazol-5-yl)-N-(5,6-difluoro-2,3-dihydro-1H-inden-2-yl)pyrimidin-2-amine] | 43
NS(=O)(=O)C1CN(c2nnc(-c3cnc(NC4Cc5cc(F)c(F)cc5C4)nc3)o2)C1 [Example 46, 1-(5-(2-((5,6-difluoro-2,3-dihydro-1H-inden-2-yl)amino)pyrimidin-5-yl)-1,3,4-oxadiazol-2-yl)azetidine-3-sulfonamide] | 27.1
COC(=O)C1CN(c2nnc(-c3cnc(NC4Cc5cc(F)c(F)cc5C4)nc3)o2)C1 [Example 47, methyl 1-(5-(2-((5,6-difluoro-2,3-dihydro-1H-inden-2-yl)amino)pyrimidin-5-yl)-1,3,4-oxadiazol-2-yl)azetidine-3-carboxylate] | 7.5
Fc1cc(F)cc(CNc2ncc(-c3nnc(N4CC(c5c[nH]nn5)C4)o3)cn2)c1 [Example 48, 5-(5-(3-(1H-1,2,3-triazol-4-yl)azetidin-1-yl)-1,3,4-oxadiazol-2-yl)-N-(3,5-difluorobenzyl)pyrimidin-2-amine] | 39.2
OC1CN(c2nnc(-c3cnc(NC4Cc5cc(F)c(F)cc5C4)nc3)o2)C1 [Example 49, 1-(5-(2-((5,6-difluoro-2,3-dihydro-1H-inden-2-yl)amino)pyrimidin-5-yl)-1,3,4-oxadiazol-2-yl)azetidin-3-ol] | 11
